Laboratory results: patent publication US4080467A, “Pharmaceutical compositions comprising 1,3-dithiolan-2-ylidene malonate derivatives” (Nihon Nohyaku Co., Ltd., priority 1976, dated 1978)

What was measured:
[1] = test system: fatty liver (carbon tetrachloride); assay: Therapeutic effect on fatty liver (carbon tetrachloride model); type: in vivo, male rat (35 week-old, SD strain); details: for Degree of fatty liver (histopathological examination): 10 days, one symbol per animal
Protocol: Carbon tetrachloride also induces fatty liver, but the picture of disease differs from the case of ethionine-induced fatty liver. Carbon tetrachloride is generally considered to damage microsome and thereby to inhibit protein synthesis and induce fatty liver.
Carbon tetrachloride was subscutaneously administered to 35 week-old male rat (SD strain) for 4 days at the dose of 1 ml/kg. The treated animals were left for 3 days after the last administration to maximize the manifestation of fatty liver.
Administration of the compounds of this invention was commenced on the fourth day after the administration of carbon tetrachloride was completed. It was orally given everyday for 10 days at the dose of 50 or 250 mg/kg. On the 11th day, the animals were sacrificed. The therapeutic effect was evaluated by determining the content of lipid in the liver (triglyceride and total lipid) and examining the histopathological changes. Triglyceride and total lipid were determined colorimetrically by chromotropic acid method and Bragdon's oxidation method, respectively.
Indices for the histopathological change is as follows.

[2] = Acute oral toxicity to male mice (LD50); details: mouse, in vivo
[3] = test system: Acute Liver Damage associated with Centrilobular Necrosis (carbon tetrachloride); assay: Protective effect on acute liver damage associated with centrilobular necrosis (carbon tetrachloride model); type: in vivo, mice (four-week-old male, dd strain); details: 250 mg/kg oral 6 h before CCl4, average of 5 to 6 mice
fatty liver (ethionine) = assay: Effect on fatty liver (ethionine model); type: in vivo, male mice (4 week-old, dd-strain); details: diet plus 0.2% ethionine and 0.2% compound, 5 days
Excerpt: There are known many factors inducing fatty liver. But, the fatty liver is grouped into a couple of patterns from the mechanism of lipid accumulation or metabolism of lipoprotein in the liver. Ethionine is a typical compound inducing fatty liver. It inhibits RNA and protein syntheses and destructs polysome of the liver cell. Fatty liver is induced by the inhibition of protein synthesis and the disturbance of lipoprotein secretion.
Usually, fatty liver is closely related to the accumulation of triglyceride in the liver. In the present example, the degree of fatty liver and protective or therapeutic effect against the fatty liver was evaluted by measurement of triglyceride content in the liver.
The animals used in the test were 4 week-old male mice (dd-strain).
The mice were submitted for 5 days to a normal diet (control), to the normal diet plus 0.2% ethionine (positive control), to the normal diet plus 0.2% ethionine and 0.2% of the compound of this invention, or to the normal diet plus 0.2% ethionine and 0.2% methionine which was the referential diet. At the end of the period of 5 days, content of triglyceride in the liver was studied colorimetrically by chromotropic acid method and the result was represented as triolein content (mg/g-liver).

[4] = test system: Chronic Liver Damage (thioacetamide); assay: Therapeutic effect on chronic liver damage (thioacetamide model), BSP test; type: in vivo, rats (Sprague Dawley strain); details: 12 times TAA 100 mg/kg, then diet + 0.2% compound
Protocol: In the tests of this Example, TAA was repeatedly administered to animals to prepare test animals suffering from somewhat chronic liver damages, and then the present compounds were administered thereto to know whether or not the compounds were effective against chronic hepatitis.
The degree of the liver damage and the therapeutic effects of the compounds were evaluated according to BSP test. The BSP test is a method in which BSP (sulfobromophthalein sodium), a dye known to be quickly metabolized in and excreted from the liver, is intravenously injected into animals and, after a definite period of time, the blood is taken out to measure the amount of BSP remaining in the plasma. In case the animals are suffering from the liver damage, the dye will remain, according to the degree of the damage, at the stage where a major portion of BSP is metabolized and excreted in the case of normal animals.
Five groups of rats (Sprague Dawley strain) were treated as follows:
Group A: The rats were orally administered with 100 mg/kg of thioacetamide,at 3 days intervals for 36 days (12 times of the administration), then were submitted for 10 days to a normal diet.
Group B: The rats were orally administered with 100 mg/kg of thioacetamide at 3 days intervals for 36 days (12 times of the administration), then were submitted for 10 days to the normal diet + 0.2% of compound 4.
Group C: The rats were orally administered with 100 mg/kg of thioacetamide at 3 days intervals for 36 days (12 times of the administration) then were submitted for 10 days to the normal diet + 0.2% of compound 2.
Group D: The rats were orally administered with 100 mg/kg of thioacetamide at 3 days intervals for 36 days (12 times of the administration) then were submitted for 10 days to the normal diet + 0.2% of anethol trithion.
Group E: The rats were submitted to the normal diet as the control.
Five rats were sacrified from each group at appropriate intervals for BSP (sulfobromophthalein) test, the results of which were shown as amounts (mg) of BSP remaining in 1 dl of plasma.

[5] = test system: acute liver damage associated with discrete lobular necrosis (D-galactosamine); assay: Protective effect on acute hepatitis with mesenchymal reaction and discrete lobular necrosis (D-galactosamine model); type: in vivo, male rat (SD strain); details: 100 mg/kg oral 6 h before D-galactosamine
Protocol: D-Galactosamine is a compound which induces a discrete lobular necrosis associated with mesenchymal reaction similar to the change observed in human viral hepatitis, so that it is frequently used in producing a model for viral hepatitis.
The compound of this invention or anethol trithion was administered orally to the male rat (SD strain) at the dose of 100 mg/kg. Six hours after it, D-galacetosamine was intraperitoneally administered at the dose of 600 mg/kg. Four hours after it, an additional 300 mg/kg was administered intraperitoneally. Eight hours after it, the animals were sacrificed to collect the blood samples. P-GPT activity and triglyceride in the liver were measured to evaluate the effect of the compound of this invention.

[6] = 50 mg/kg oral everyday for 10 days
[7] = 250 mg/kg oral everyday for 10 days

Question: What does the source list for `CC(C)OC(=O)C(C(=O)OC(C)C)=C1SCCS1` [Compound 4, Diisopropyl 1,3-dithiolan-2-yliden malonate]?
Answer: Total lipid [1, 6]: 107.6 ± 12.3 mg/g-liver; Triglyceride [1, 6]: 42.3 ± 6.3 mg/g-liver; Degree of fatty liver (histopathological examination) ([1]; 50 mg/kg oral): ± ± and ± ± ± + ±; Total lipid [1, 7]: 72.3 ± 9.6 mg/g-liver; Triglyceride [1, 7]: 23.6 ± 3.8 mg/g-liver; Degree of fatty liver (histopathological examination) ([1]; 250 mg/kg oral): - - ± ± - ±; LD50 [2]: 1350 mg/kg; p-GPT (plasma glutamic-pyruvic transaminase activity) ([3]; 24 h after CCl4, values over 1,000 regarded as 1,000): 23 Karmen units; Liver Damage Index ([3]; 0 normal, 2 slightly recognized, 4 clearly observable damage, 6 heavy damage): 0.2; Triglyceride (content in the liver, as triolein) (fatty liver (ethionine)): 10.4 ± 1.6 mg/g; Concentration of BSP in plasma ([4]; 2 Days): 7.6 ± 1.1 mg/dL; Concentration of BSP in plasma ([4]; 5 Days): 3.8 ± 0.5 mg/dL; Concentration of BSP in plasma ([4]; 10 Days): 0.3 ± 0.1 mg/dL; Triglyceride in liver [5]: 4.6 ± 0.73 mg/g; p-GPT [5]: 63±23 Karmen unit
